Molecules are shown by their SMILES. Some results are limits rather than exact numbers.

T1 sequence (Q5S007 970-2527 G2019S limits assumed): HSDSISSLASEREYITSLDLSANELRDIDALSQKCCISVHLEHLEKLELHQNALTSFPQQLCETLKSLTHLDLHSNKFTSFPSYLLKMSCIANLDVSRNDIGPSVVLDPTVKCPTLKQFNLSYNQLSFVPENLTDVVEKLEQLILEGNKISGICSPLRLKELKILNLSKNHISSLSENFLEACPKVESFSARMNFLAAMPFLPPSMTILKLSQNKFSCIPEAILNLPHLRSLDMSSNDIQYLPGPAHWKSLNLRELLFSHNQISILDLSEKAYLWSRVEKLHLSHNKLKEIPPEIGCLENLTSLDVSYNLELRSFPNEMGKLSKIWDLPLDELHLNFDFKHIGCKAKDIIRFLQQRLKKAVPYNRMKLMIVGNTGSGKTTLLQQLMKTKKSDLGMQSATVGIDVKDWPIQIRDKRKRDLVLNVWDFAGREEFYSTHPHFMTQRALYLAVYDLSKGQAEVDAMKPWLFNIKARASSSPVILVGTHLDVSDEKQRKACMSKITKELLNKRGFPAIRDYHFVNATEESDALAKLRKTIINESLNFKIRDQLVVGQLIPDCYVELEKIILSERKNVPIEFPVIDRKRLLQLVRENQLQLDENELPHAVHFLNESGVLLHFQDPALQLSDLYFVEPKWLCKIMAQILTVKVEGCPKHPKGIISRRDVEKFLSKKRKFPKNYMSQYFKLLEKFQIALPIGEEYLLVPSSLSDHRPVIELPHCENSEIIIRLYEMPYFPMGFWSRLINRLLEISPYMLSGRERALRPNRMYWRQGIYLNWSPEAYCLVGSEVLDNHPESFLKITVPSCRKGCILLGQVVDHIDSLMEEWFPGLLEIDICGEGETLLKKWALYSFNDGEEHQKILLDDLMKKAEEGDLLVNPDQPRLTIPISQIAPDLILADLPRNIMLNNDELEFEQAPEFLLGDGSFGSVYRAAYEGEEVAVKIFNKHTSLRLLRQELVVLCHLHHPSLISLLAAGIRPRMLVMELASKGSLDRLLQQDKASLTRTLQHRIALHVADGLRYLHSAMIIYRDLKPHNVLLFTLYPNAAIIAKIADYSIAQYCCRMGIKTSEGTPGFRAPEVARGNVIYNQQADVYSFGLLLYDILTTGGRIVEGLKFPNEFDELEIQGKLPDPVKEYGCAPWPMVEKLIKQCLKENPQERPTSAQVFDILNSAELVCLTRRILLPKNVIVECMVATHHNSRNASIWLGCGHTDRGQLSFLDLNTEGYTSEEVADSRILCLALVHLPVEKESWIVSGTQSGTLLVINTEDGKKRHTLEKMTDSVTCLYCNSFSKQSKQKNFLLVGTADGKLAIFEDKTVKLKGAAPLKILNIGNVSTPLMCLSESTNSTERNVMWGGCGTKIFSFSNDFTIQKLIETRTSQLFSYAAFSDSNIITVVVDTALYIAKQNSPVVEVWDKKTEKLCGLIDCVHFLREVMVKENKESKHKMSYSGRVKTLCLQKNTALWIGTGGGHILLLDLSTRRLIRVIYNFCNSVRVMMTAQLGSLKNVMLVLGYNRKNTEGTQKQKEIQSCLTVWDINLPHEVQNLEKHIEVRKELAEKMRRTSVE

This assay has as its target T1, LRRK2 (G2019S) (Homo sapiens, UniProt Q5S007, G2019S).
T1 construct: Recombinant GST-LRRK2 (delta970), purified from baculovirus infected insect cells (SF9); GST (N); host or cells: baculovirus infected insect cells (SF9)
In words: LRRK2 inhibition, radiometric kinase assay with recombinant GST-LRRK2 (delta970) and peptide substrate. The format is biochemical. The conditions noted are these: GST-LRRK2 (delta970) G2019S 30 nM, ATP ~52 μM (Km), 30 min at 30° C. As to the method:
Compounds were assessed for inhibition of LRRK2 inhibition using the following procedure.
Recombinant GST-LRRK2 (delta970), purified from baculovirus infected insect cells (SF9), at least 90% pure and either wild-type sequence or bearing the pathogenic G2019S mutation, was combined into a kinase buffer at 30 nM concentration. Kinase buffer consists of 50 mM Tris HCl pH 7.4, 1 mM EDTA, and 50 μM peptide substrate (amino acid sequence […]). Experimental compounds or control (no compound) were added at desired concentrations in DMSO and water, where final concentration of DMSO in kinase reactions was 0.1% for all drug concentrations. Activation buffer that consists of a final concentration in the reactions of 10 mM MgCl2 and ATP (˜92 μM for WT-LRRK2 reactions and ˜52 μM for G2019S-LRRK2, which represent respective Km ATP concentrations) were added to each reaction, in addition to 0.5 μCi of gamma-32-P-dATP per reaction. Reactions were incubated at 1400 RPM at 30° C. for 30 min. and then spotted in triplicate directly onto a slot-blot apparatus fitted with phospho-cellulose paper and allowed to dry. Each slot was then washed with 10 mM phosphoric acid buffer until beta-radiation could not be detected in eluted wash buffer, usually ˜1 mL per slot. Paper within each slot were excised and radiation measured by liquid scintillation.
For orientation: IC50 means the midpoint of a concentration-inhibition curve. In the case of `CCOC(=O)C(CC)Sc1ccc2nnc(-c3ccc(F)cc3)n2n1` (stereo not drawn) [Example 1, ethyl 2-((3-(4-fluorophenyl)-[1,2,4]triazolo[4,3-b]pyridazin-6-yl)thio)butanoate], the IC50 is at least 5000 nM. The figure for `CCOC(=O)CSc1ccc2nnc(-c3ccncc3)n2n1` [Example 2, ethyl 2-((3-(pyridin-4-yl)-[1,2,4]triazolo[4,3-b]pyridazin-6-yl)thio)acetate] is at least 5000 nM; for `NC(=O)CSc1ccc2nnc(-c3cccs3)n2n1` [Example 3, 2-((3-(thiophen-2-yl)-[1,2,4]triazolo[4,3-b]pyridazin-6-yl)thio)acetamide] it is 100 to 1000 nM. Take `NC(=O)CSc1ccc2nnc(-c3ccncc3)n2n1` [Example 4, 2-((3-(pyridin-4-yl)-[1,2,4]triazolo[4,3-b]pyridazin-6-yl)thio)acetamide]: the 50% inhibitory concentration (IC50) is at least 5000 nM. The figure for `NC(=O)CSc1ccc2nnc(-c3ccsc3)n2n1` [Example 5, 2-((3-(thiophen-3-yl)-[1,2,4]triazolo[4,3-b]pyridazin-6-yl)thio)acetamide] is 100 to 1000 nM. In the case of `CCC(Sc1ccc2nnc(-c3ccc(F)cc3)n2n1)C(=O)O` (stereo not drawn) [Example 6, 2-((3-(4-fluorophenyl)-[1,2,4]triazolo[4,3-b]pyridazin-6-yl)thio)butanoic acid], the IC50 was in the range of 100 to 1000 nM. As for `CCC(Sc1ccc2nnc(-c3ccc(F)cc3)n2n1)C(=O)Nc1nccs1` (stereo not drawn) [Example 7, 2-((3-(4-fluorophenyl)-[1,2,4]triazolo[4,3-b]pyridazin-6-yl)thio)-N-(thiazol-2-yl)butanamide], the figure is at least 5000 nM. As to `CCC(Sc1ccc2nnc(-c3ccc(F)cc3)n2n1)C(=O)N1CCCC1` (stereo not drawn) [Example 8, 2-((3-(4-fluorophenyl)-[1,2,4]triazolo[4,3-b]pyridazin-6-yl)thio)-1-(pyrrolidin-1-yl)butan-1-one], the 50% inhibitory concentration (IC50) fell in the range of 100 to 1000 nM. As for `CCC(Sc1ccc2nnc(-c3ccc(F)cc3)n2n1)C(=O)N1CCCCC1` (stereo not drawn) [Example 9, 2-((3-(4-fluorophenyl)-[1,2,4]triazolo[4,3-b]pyridazin-6-yl)thio)-1-(piperidin-1-yl)butan-1-one], the figure is 1000 to 5000 nM.

For `NC(=O)CSc1ccc2nnc(C3CCCCC3)n2n1` [Example 10, 2-((3-cyclohexyl-[1,2,4]triazolo[4,3-b]pyridazin-6-yl)thio)acetamide], the IC50 is at least 5000 nM. Turning to `O=C(CSc1ccc2nnc(-c3cccs3)n2n1)N1CCCCC1` [Example 11, 1-(piperidin-1-yl)-2-((3-(thiophen-2-yl)-[1,2,4]triazolo[4,3-b]pyridazin-6-yl)thio)ethanone], the IC50 fell in the range of 100 to 1000 nM.

For the molecule `CCC(Sc1ccc2nnc(-c3ccc(F)cc3)n2n1)C(=O)Nc1cnc2ccccc2c1` (stereo not drawn) [Example 12], the IC50 was at least 5000 nM. `Cc1ccc(-c2nnc3ccc(SCC(=O)O)nn23)cc1` [Example 13, 2-((3-(p-tolyl)-[1,2,4]triazolo[4,3-b]pyridazin-6-yl)thio)acetic acid]: the IC50 is 1000 to 5000 nM. Consider `CCC(Sc1ccc2nnc(-c3ccc(F)cc3)n2n1)C(=O)Nc1ccccc1C(F)(F)F` (stereo not drawn) [Example 14, 2-((3-(4-fluorophenyl)-[1,2,4]triazolo[4,3-b]pyridazin-6-yl)thio)-N-(2-(trifluoromethyl)phenyl)butanamide], for which the IC50 was at least 5000 nM. With `NC(=O)CSc1ccc2nnc(C3CCCC3)n2n1` [Example 15, 2-((3-cyclopentyl-[1,2,4]triazolo[4,3-b]pyridazin-6-yl)thio)acetamide], the IC50 fell in the range of 1000 to 5000 nM. The figure for `NC(=O)CSc1ccc2nnc(-c3ccccn3)n2n1` [Example 16, 2-((3-(pyridin-2-yl)-[1,2,4]triazolo[4,3-b]pyridazin-6-yl)thio)acetamide] is at least 5000 nM. As for `O=C(O)CSc1ccc2nnc(-c3ccc(F)cc3)n2n1` [Example 17, 2-((3-(4-fluorophenyl)-[1,2,4]triazolo[4,3-b]pyridazin-6-yl)thio)acetic acid], the figure is at least 5000 nM; as for `CCC(Sc1ccc2nnc(-c3cccs3)n2n1)C(=O)O` (stereo not drawn) [Example 18, 2-((3-(thiophen-2-yl)-[1,2,4]triazolo[4,3-b]pyridazin-6-yl)thio)butanoic acid], 100 to 1000 nM. Regarding `NC(=O)CSc1ccc2nnc(-c3ccc(F)cc3)n2n1` [Example 19, 2-((3-(4-fluorophenyl)-[1,2,4]triazolo[4,3-b]pyridazin-6-yl)thio)acetamide], the IC50 lay in the range of 1000 to 5000 nM. Consider `c1csc(-c2nnc3ccc(N4CCCCC4)nn23)c1` [Example 20, 6-(piperidin-1-yl)-3-(thiophen-2-yl)-[1,2,4]triazolo[4,3-b]pyridazine], for which the IC50 was at least 5000 nM. Turning to `O=C(CSc1ccc2nnc(-c3cccs3)n2n1)N1CCCC1` [Example 21, 1-(pyrrolidin-1-yl)-2-((3-(thiophen-2-yl)-[1,2,4]triazolo[4,3-b]pyridazin-6-yl)thio)ethanone], the IC50 is 100 to 1000 nM.

As to `O=C(CSc1ccc2nnc(-c3cccs3)n2n1)Nc1nccs1` [Example 23, N-(thiazol-2-yl)-2-((3-(thiophen-2-yl)-[1,2,4]triazolo[4,3-b]pyridazin-6-yl)thio)acetamide], the IC50 is 100 to 1000 nM. As for `O=C(CSc1ccc2nnc(-c3cccs3)n2n1)N1CCOCC1` [Example 24, 1-morpholino-2-((3-(thiophen-2-yl)-[1,2,4]triazolo[4,3-b]pyridazin-6-yl)thio)ethanone], the figure is 100 to 1000 nM; as for `Cc1ccc(-c2nnc3ccc(SCC(=O)N4CCCC4)nn23)cc1` [Example 25, 1-(pyrrolidin-1-yl)-2-((3-(p-tolyl)-[1,2,4]triazolo[4,3-b]pyridazin-6-yl)thio)ethanone], 1000 to 5000 nM; as for `NC(=O)CSc1ccc2nnc(-c3ccco3)n2n1` [Example 26, 2-((3-(furan-2-yl)-[1,2,4]triazolo[4,3-b]pyridazin-6-yl)thio)acetamide], 100 to 1000 nM.

Consider `O=C(O)CSc1ccc2nnc(-c3cccs3)n2n1` [Example 27, 2-((3-(thiophen-2-yl)-[1,2,4]triazolo[4,3-b]pyridazin-6-yl)thio)acetic acid], for which the IC50 was at least 5000 nM. As for `O=C(O)CSc1ccc2nnc(-c3ccco3)n2n1` [Example 28, 2-((3-(furan-2-yl)-[1,2,4]triazolo[4,3-b]pyridazin-6-yl)thio)acetic acid], the figure is at least 5000 nM; as for `NC(=O)CSc1ccc2nnc(-c3cc4ccccc4s3)n2n1` [Example 29, 2-((3-(benzo[b]thiophen-2-yl)-[1,2,4]triazolo[4,3-b]pyridazin-6-yl)thio)acetamide], at least 5000 nM. Turning to `O=C(O)CSc1ccc2nnc(-c3cc4ccccc4s3)n2n1` [Example 30, 2-((3-(benzo[b]thiophen-2-yl)-[1,2,4]triazolo[4,3-b]pyridazin-6-yl)thio)acetic acid], the IC50 is at least 5000 nM.

In the case of `O=C(O)CSc1ccc2nnc(-c3cc4ccccc4o3)n2n1` [Example 31, 2-((3-(benzofuran-2-yl)-[1,2,4]triazolo[4,3-b]pyridazin-6-yl)thio)acetic acid], the IC50 was at least 5000 nM. For `NC(=O)CSc1ccc2nnc(-c3cc4ccccc4o3)n2n1` [Example 32, 2-((3-(benzofuran-2-yl)-[1,2,4]triazolo[4,3-b]pyridazin-6-yl)thio)acetamide], the concentration for half-maximal inhibition (IC50) was at least 5000 nM. The figure for `CCC(Sc1ccc2nnc(-c3nccs3)n2n1)C(=O)O` (stereo not drawn) [Example 33, 2-((3-(thiazol-2-yl)-[1,2,4]triazolo[4,3-b]pyridazin-6-yl)thio)butanoic acid] is 100 to 1000 nM; for `NC(=O)CSc1ccc2nnc(-c3csc4ccccc34)n2n1` [Example 35, 2-((3-(benzo[b]thiophen-3-yl)-[1,2,4]triazolo[4,3-b]pyridazin-6-yl)thio)acetamide] it is 1000 to 5000 nM.

Turning to `CC(Sc1ccc2nnc(-c3cccs3)n2n1)C(=O)O` (stereo not drawn) [Example 36, 2-((3-(thiophen-2-yl)-[1,2,4]triazolo[4,3-b]pyridazin-6-yl)thio)propanoic acid], the IC50 lay in the range of 100 to 1000 nM. The figure for `NC(=O)CSc1ccc2nnc(-c3nccs3)n2n1` [Example 37, 2-((3-(thiazol-2-yl)-[1,2,4]triazolo[4,3-b]pyridazin-6-yl)thio)acetamide] is at least 5000 nM; for `O=C(O)CSc1ccc2nnc(-c3csc4ccccc34)n2n1` [Example 38, 2-((3-(benzo[b]thiophen-3-yl)-[1,2,4]triazolo[4,3-b]pyridazin-6-yl)thio)acetic acid] it is at least 5000 nM.

For the molecule `Cc1scc(-c2nnc3ccc(SCC(=O)O)nn23)c1-c1ccccc1` [Example 39, 2-((3-(5-methyl-4-phenylthiophen-3-yl)-[1,2,4]triazolo[4,3-b]pyridazin-6-yl)thio)acetic acid], the IC50 was at least 5000 nM. Consider `Cc1scc(-c2nnc3ccc(SCC(N)=O)nn23)c1-c1ccccc1` [Example 40, 2-((3-(5-methyl-4-phenylthiophen-3-yl)-[1,2,4]triazolo[4,3-b]pyridazin-6-yl)thio)acetamide], for which the IC50 is at least 5000 nM. `CCCCC(Sc1ccc2nnc(-c3cccs3)n2n1)C(=O)O` (stereo not drawn) [Example 41, 2-((3-(thiophen-2-yl)-[1,2,4]triazolo[4,3-b]pyridazin-6-yl)thio)hexanoic acid]: the half-inhibitory concentration (IC50) is 1000 to 5000 nM.

The values are drawn from patent US9187484B2 (Southern Research Institute, priority 2012, dated 2015).
